Source: patent publication US20040248766A1, “Selective inhibition of intracellular amyloid-beta neurotoxicity in human neurons” (priority 2001, published 2004)
Entries after “also recorded” stand apart in the source; their conditions may differ. Numbered stars: 1 amine (or outer) side, 2 acyl side, 3 side chain; on linkers, the order of the positions; unused ones are H or OH. Bridge positions count the residues as written; N and C are the ends. Square brackets hold non-standard residues; d marks the D form. Peptide text beside a SMILES is read from it. I, II: the chains in the order shown. * marks the point of attachment. Actinocin(9to1) = Cc1c2oc3c(C)ccc(C(=O)[*:1])c3nc-2c(C(=O)[*:2])c(N)c1=O; NMeV = CN[C@H](C(=O)O)C(C)C; Cbz = O=C(OCc1ccccc1)*; Sar = CNCC(=O)O; CH2F = FC*

Tests used:
[1] = tested on: Aβ1-42-mediated neuronal cell death; assay: Inhibition of Aβ1-42-mediated neuronal cell death in Aβ1-42-microinjected neurons, TUNEL; format: cell-based, human; details: 1 hour pre-incubation, 24 hours; for inhibition of the Aβ1-42-induced cell death / prevention of Aβ1-42-induced neuronal cell death (in words): 5 μM inhibitor; for block of Aβ1-42-induced neuronal death (in words): 5 μg/ml cycloheximide or 5 μM actinomycin D
Experimental: cDNA Clones. Human Bcl-2 cDNA, Bax α cDNA, and APP695 cDNA were cloned into pCep4β (Invitrogen Canada, Burlington, ON, Canada). The p53 wild type and p53R273H dominant negative cDNA may be cloned in the pCMV-NEO vector. These cDNAs were purified through GlassMAXTM (Gibco-BRL, Rockville, Mass.) and diluted at 30 ng/μl in PBS before injection.
Neutralizing Bax antibodies. Monoclonal anti-Bax 6A7 (amino acids 12-24: Pharmingen, San Diego, Calif.) and 2D2 (amino acids 3-16: Trevigen, Gaithersburg, Md.), polyclonal anti-Bax N-20 (Santa Cruz Biotechnology, Santa Cruz, Calif.), monoclonal anti-APP 22C11 (Roche Molecular Biochemicals, Laval, PQ, Canada), mouse IgG or rabbit sera were diluted at 50 μg/ml (for 6A7, 2D2, mouse IgG and 22C11) or 25 μg/ml (for polyclonal anti-Bax and rabbit sera) in PBS before use. A toxicity curve was done to determine this concentration as the highest non-toxic concentration that can be injected in neurons.
(§1) Microinjection. Thin-walled Borosilicate glass capillaries (OD 1.0 mm, ID 0.5 mm) with microfilament (MTW1OOF-4, World Precision Instrument, Sarasota, Fla.) were pulled with a Flaming/Brown Micropipefte Puller (β-87, Sutter, Novato, Calif.) to obtain injection needles with a tip diameter of ˜0.5 μm. Microinjection was performed in the cytosol of each cell using the Eppendorf Microinjector 5246 (Hamburg, Germany) and Burleigh Micromanipulator MIS-5000 (Victor, N.Y.). Human neurons were injected with 25 pl/shot at an injection pressure of 100 hPa, a compensation pressure of 50 hPa, and an injection time of 0.1 s. Human astrocytes, M17, NT2 and La—N-1 cells were injected with 8 pl/shot at an injection pressure of 50 hPa, a compensation pressure of 30 hPa and an injection time of 0.1 s.
(§2) Measurement of neuronal apoptosis. Cells were fixed in freshly prepared 4% paraformaldehyde/4% sucrose for 20 minutes at room temperature and permeabilized in 0.1% Triton X-100, 0.1% sodium citrate on ice for 2 minutes. Terminal deoxynucleotidyl transferase-mediated dUTP nick end labeling (TUNEL) was performed using the In Situ Cell Death Detection Kit I as described by the manufacturer (Roche Molecular Biochemicals). The percentage of cell death was determined as the ratio of the number of DTR-TLUNEL-double-positive cells over the total number of DIR-positive cells.
Treatment with caspase inhibitors, cycloheximide, actinomycin D. Caspase pan inhibitor, Z-Valine-Alanine-Aspartic acid-fluoromethylketone (Z-VAD-fmk) (Biomol, Plymounth Meeting, PA); caspase-6 inhibitor, Z-Valine-Glutamic acid-Isoleucine-Aspartic acid-fmk (Z-VEID-fnk); caspase-3 inhibitor, Z-Aspartic acid-Glutamic acid-Valine-Aspartic acid-fmk (Z-DEVD-fmk); and caspase-8 inhibitor, Z-Isoleucine-Glutamic acid-Threomine-Aspartic acid-fmk (Z-IETD-fmk) (Sigma, Oakville, ON, Canada) were dissolved in 100% dimethylsulphoxide (DMSO, Sigma) at 5 mM and were diluted at 5 μM into culture medium immediately before use. The medium was changed every 48 hours.
Stock solutions of 5 mg/ml cycloheximide and 200 IM actinomycin D were made in sterile distilled water and diluted to 5 μg/ml for cycloheximide and 5 μM for actinomycin D in the culture medium immediately before use.
Dextran Texas Red (DTR) was co-injected with Aβ1-42 to identi the injected cells from the non-injected cells. The experiment was done on 200 microinjected neurons per preparation of neurons and on three independent neuron preparations.

[2] = tested on: primary human neurons; assay: Microinjection of Aβ peptides into the cytosol of primary human neurons, cell death by TUNEL; format: cell-based; details: for intracellular toxicity to human neurons (in words): peptide microinjected into cytosol; for neuronal cell death (in words): fibrillized or non-fibrillized preparation, 10 nM, 24, 48 and 96 hours
Experimental: Cell cultures. Primary cultures of human neurons and astrocytes were prepared as described in LeBlanc, A., J. Neurosci. 15:7837-46 (1995), incorporated herein by reference. Fresh brain tissues were dissociated with 0.25% trypsin (Gibco-BRL) in phosphate buffered saline (PBS) at 37° C. for 15 minutes. The trypsin was inactivated. by adding 10% decomplemented fetal bovine serum (FBS, HyClone, Logan, Utah.) to the mixture. The dissociated tissues were triturated in 0.1 mg/ml DNaseI (Gibco-BRL) to obtain a homogeneous mixture. The mixture was filtered successively through 130 and 70 gm filters and centrifuged at 15,000 g for 10 minutes at 10° C. to pellet the cells. The cell pellet was washed once with PBS and once with minimal essential media (MEM, Gibco-BRL) in Earle's balanced salt solution containing 0.225% sodium bicarbonate, 1 mM sodium pyruvate, 2 mM L-glutamine, 0.1% dextrose, 1×antibiotic Pen-Strep (all from Gibco-BRL) and 5% decomplemented FBS.
The cells were plated on poly-L-lysine-coated ACLARTM (Cat. No.: 33C; thickness: 0.5 mm; Allied Chemical, Minneapolis, Minn.) coverslips at a density of 3×10^6 cells/ml. Neurons and astrocytes were incubated at 37° C. in the MEM media with 5% CO2, and the media were changed every 48 hours. For neuron culture, 1 mM fluorodeoxyuridine (FDU, Gibco-BRL) was applied for the first 3 feedings and after that, used weekly to prevent proliferation of dividing cells. […] Microinjection or treatment was performed 10 days after plating for neurons and astrocytes.
Aβ peptides. Aβ peptides (Bachem, King of Prussia, Pa.) were dissolved in sterile distilled water at 25 μM and incubated at 37° C. for 5 days. The peptides stock solutions were frozen and diluted in 1×PBS immediately before microinjection. […] A 250 μl aliquot was diluted to 0.25 μM and immediately frozen at −20° C. in aliquots of 50 μl. The remaining solution was incubated at 37° C. in Eppendorf tubes with continuous mixing by inversion. After incubation, the samples were removed, vortexed, sonicated twice for 1 minute in a bath type sonicator (ELMA GmbH & Co. KG, Germany) and frozen at −20° C. in […]. Each aliquot was used once to avoid possible effects of freeze and thaw cycles.
as §1
The diluted peptides were injected at the indicated concentrations with 100 μg/ml dextran Texas Red (DTR) (MW: 3000, Molecular Probes, Eugene, Oreg.) as a fluorescent marker to recognize the injected cells.
as §2, with “Biochemicals).” for “Biochemicals). The percentage of cell death was determined as the ratio of the number of DTR-TLUNEL-double-positive cells over the total number of DIR-positive cells.”

[3] = tested on: human neurons; assay: Exposure of human neurons to extracellular Aβ peptides, TUNEL and propidium iodide; format: cell-based; details: 10 μM extracellular, 24 hours
Experimental: To test if this particular batch of peptide might be neurotoxic, neurons were treated with 10 μM of peptides for 24 hours.

CC(C)[C@H](NC(=O)[C@H](CCC(=O)O)NC(=O)[C@H](CC(=O)O)NC(=O)OCc1ccccc1)C(=O)N[C@@H](CC(=O)O)C(=O)CF [Z-DEVD-fmk, Z-Aspartic acid-Glutamic acid-Valine-Aspartic acid-fmk]
inhibition of the Aβ1-42-induced cell death [1]: 30%

CC[C@H](C)[C@H](NC(=O)OCc1ccccc1)C(=O)N[C@@H](CCC(=O)O)C(=O)N[C@H](C(=O)N[C@@H](CC(=O)O)C(=O)CF)[C@@H](C)O [Z-IETD-fmk, Z-Isoleucine-Glutamic acid-Threomine-Aspartic acid-fmk] (Cbz-IETD-CH2F)
prevention of Aβ1-42-induced neuronal cell death (in words) [1]: completely prevents

COC(=O)C[C@H](NC(=O)[C@H](C)NC(=O)[C@@H](NC(=O)OCc1ccccc1)C(C)C)C(=O)CF [Z-VAD-fmk, Z-Valine-Alanine-Aspartic acid-fluoromethylketone] (Cbz-Val-Ala-Asp(OMe)-CH2F)
prevention of Aβ1-42-induced neuronal cell death (in words) [1]: completely prevents

COC(=O)C[C@H](NC(=O)[C@H](C)NC(=O)[C@@H](NC(=O)[C@H](Cc1ccc(O)cc1)NC(=O)OCc1ccccc1)C(C)C)C(=O)CF [Z-YVAD-fmk]
inhibition of the Aβ1-42-induced cell death [1]: 30%

Cc1c2oc3c(C)ccc(C(=O)N[C@@H]4C(=O)N[C@H](C(C)C)C(=O)N5CCC[C@H]5C(=O)N(C)CC(=O)N(C)[C@@H](C(C)C)C(=O)O[C@@H]4C)c3nc-2c(C(=O)N[C@@H]2C(=O)N[C@H](C(C)C)C(=O)N3CCC[C@H]3C(=O)N(C)CC(=O)N(C)[C@@H](C(C)C)C(=O)O[C@@H]2C)c(N)c1=O [actinomycin D] (I: T[dV]P[Sar][NMeV] / II: T[dV]P[Sar][NMeV]; ester I:1-I:C, II:1-II:C; linker I:N-II:N via Actinocin(9to1))
block of Aβ1-42-induced neuronal death (in words) [1]: efficiently block

C[C@@H]1C[C@@H]([C@H](O)CC2CC(=O)NC(=O)C2)C(=O)[C@@H](C)C1 [cycloheximide]
block of Aβ1-42-induced neuronal death (in words) [1]: efficiently block

Aβ1-40: 40 amino acid amyloid β peptide (SEQ ID NO: 1)
effect on cell viability ([2]; 10 nM aged peptide, between 24 and 96 hours): do not affect cell viability | cell death of microinjected neurons ([2]; 10 nM aged peptide, sixteen days after injection): 50% | intracellular toxicity to human neurons (in words) [2]: not observed to be toxic; also recorded: significant apoptosis only 16 days after microinjection | toxicity of extracellular peptide (in words) [3]: do not undergo cell death; also recorded: Neither extracellular Aβ1-40, Aβ1-42, or Aβ40-1 are toxic

Z-Valine-Glutamic acid-Isoleucine-Aspartic acid-fmk [Z-VEID-fmk]
prevention of Aβ1-42-induced neuronal cell death (in words) [1]: completely prevents

fibrillized Aβ1-40: Aβ1-40 incubated at 37° C. with mixing
neuronal cell death (in words) [2]: neither fibrillized nor non-fibrillized Aβ1-40 cause significant cell death

non-fibrillized Aβ1-40: disaggregated Aβ1-40 diluted and immediately frozen
neuronal cell death (in words) [2]: neither fibrillized nor non-fibrillized Aβ1-40 cause significant cell death

non-fibrillized Aβ1-42: disaggregated Aβ1-42 diluted and immediately frozen
intracellular toxicity to human neurons (in words) [2]: as neurotoxic as fibrillized
